The values that follow come from US10336689B1, “Gossypol eflornithine Schiff base compound with antitumor activities and a method of preparing the same” (SHAANXI UNIVERSITY OF SCIENCE AND TECHNOLOGY, priority 2019, dated 2019).

Like-named read-outs stand apart in the source and are kept apart here. Some results are limits rather than exact numbers.

Assay type in all cases: cell-based
For assay [1], the system named is human hepatoma cells (HepG2). Kind of assay: MTT tumor cell proliferation inhibition test, HepG2. The settings on record: read-out: Half Inhibitory Concentration IC50, HepG2. As to the method: (§1) The gossypol eflornithine Schiff base compound was subjected to tumor cell proliferation inhibition test, and conventional MTT method was used.
(§2) Cell lines: human hepatoma cells (HepG2), human lung cancer cells (A-549), human gastric cancer cells (SGC-7901). The culture medium was DMEM+15% NBS+double antibody.
(§3) Sample solution preparation: after dissolving with DMSO (Merck), PBS (−) was added to obtain 100 μmol/L solution or homogeneous suspension. The solution was diluted with PBS (−) in DMSO to a final concentration of 0.1, 1, 10, 20, 40, 60, 80, 100 μmol/L.
(§4) Gossypol and eflornithine used as control solution, prepared under the same condition.
(§5) Cell culture: adherent growth Tumor cells were cultured in 1640 medium containing 10% inactivated neonatal bovine serum and penicillin, streptomycin (1 million U/L), placed in carbon dioxide incubator at 37° C., 5% CO2, and saturated humidity. Cells were treated serially passaged 2-3 times. The first culture was washed with PBS 2 times, and digested with trypsin. Fresh culture medium was added evenly, cells were adjusted to an appropriate concentration and transferred into a new culture flask. […]
(§6) Experimental Principle: Living cells mitochondria in the dehydrogenase can reduce yellow MTT to water-insoluble blue-violet product MT (MTT formazan), deposited in the cells. […] DMSO can dissolve blue violet crystals, and the color depth is proportional to the amount contained, so the absorbance measured by the microplate reader can reflect the cell viability.
(§7) Methods: The exponential phase cells were digested and counted and seeded in 96-well plates at a density of 2×10^4/mL at 100 μl per well. […] After 48 hours, the supernatant was discarded, and 100 μl of MTT ((2-(4,5-dimethyl-2-thiazolyl)-3,5-diphenyl-2H-[…]) (1 mg/mL) was added to each well. After another 4 hours, the supernatant was discarded, and 100 μl of DMSO was added to each well. After mixing, the absorbance was measured at 570 nm using a microplate reader. An IC50 calculation software was used to determine the half inhibitory concentration (IC50).

In assay [2] the test system is human lung cancer cells (A-549). Kind of assay: MTT tumor cell proliferation inhibition test, A-549. The settings on record: read-out: Half Inhibitory Concentration IC50, A549. The protocol: as §1, §2, §3, §4, §5, §6, §7
In assay [3] the test system is human gastric cancer cells (SGC-7901). The assay is described as follows: MTT tumor cell proliferation inhibition test, SGC-7901. To be noted: for IC50: Homo sapiens, read-out: Half Inhibitory Concentration IC50, SGC-7901. The protocol:
as §1, §2, §3, §4
Cell culture: adherent growth Tumor cells were cultured in 1640 medium containing 10% inactivated neonatal bovine serum and penicillin, streptomycin (1 million U/L), placed in carbon dioxide incubator at 37° C., 5% CO2, and saturated humidity. Cells were treated serially passaged 2-3 times. The first culture was washed with PBS 2 times, and digested with trypsin. Fresh culture medium was added evenly, cells were adjusted to an appropriate concentration and transferred into a new culture flask. Cell in an exponential phase were chosen for the tests.
MTT Assay for Cell Viability and IC50 Determination:
Experimental Principle: Living cells mitochondria in the dehydrogenase can reduce yellow MTT to water-insoluble blue-violet product MT (MTT formazan), deposited in the cells. The amount of production is proportional to the number of living cells. […] DMSO can dissolve blue violet crystals, and the color depth is proportional to the amount contained, so the absorbance measured by the microplate reader can reflect the cell viability.
Methods: The exponential phase cells were digested and counted and seeded in 96-well plates at a density of 2×10^4/mL at 100 μl per well. After 24 hours of incubation, the cells to be tested were treated with 0.1, 1, 10, 20, 40, 60, 80, 100 μmol/L of the compounds. Each experimental group had 5 wells in each concentration, and the culture medium containing 0.4% DMSO was used as control. After 48 hours, the supernatant was discarded, and 100 μl of MTT ((2-(4,5-dimethyl-2-thiazolyl)-3,5-diphenyl-2H-[…]) (1 mg/mL) was added to each well. After another 4 hours, the supernatant was discarded, and 100 μl of DMSO was added to each well. After mixing, the absorbance was measured at 570 nm using a microplate reader. An IC50 calculation software was used to determine the half inhibitory concentration (IC50).

Where [4] appears, read: HepG2 cells, MTT, 48 hours treatment.
[5] abbreviates: A549 cells, MTT, 48 hours treatment.
[6] abbreviates: SGC-7901 cells, MTT, 48 hours treatment.

`Cc1cc2c(C(C)C)c(O)c(O)c(C=O)c2c(O)c1-c1c(C)cc2c(C(C)C)c(O)c(O)c(C=O)c2c1O` [Gossypol]: the IC50 in assay [1] (HepG2, 48 h) came to 9.55 ± 0.41 µM; in assay [2] (A549, 48 h), 13 ± 0.32 µM; in assay [3] (SGC-7901, 48 h), 19.8 ± 0.66 µM.

As for `NCCCC(N)(C(=O)O)C(F)F` (stereo not shown) [Eflornithine], the IC50 in assay [1] (setting [4]), in assay [2] (setting [5]) and in assay [3] (setting [6]) was > 100 µM throughout.

In the case of `Cc1cc2c(C(C)C)c(O)c(O)c(/C=N\CCCC(N)(C(=O)O)C(F)F)c2c(O)c1-c1c(C)cc2c(C(C)C)c(O)c(O)c(/C=N\CCCC(N)(C(=O)O)C(F)F)c2c1O` (stereo not shown) [gossypol eflornithine Schiff base compound], the IC50 in assay [1] (setting [4]) worked out at 20.1 ± 0.57 µM; in assay [2] (setting [5]), 11.6 ± 0.2 µM; in assay [3] (setting [6]) it was 11.1 ± 0.34 µM. Besides, the “antitumor activity against SGC-7901 cell lines compared with gossypol” value in assay [3] (SGC-7901 cells, MTT, comparison with gossypol) is “better antitumor activity against SGC-7901 cell lines than gossypol”.
